Data published in publication PMC2709273 (The Journal of pharmacology and experimental therapeutics, 2008).
“Also recorded” adds a separate entry of the source. Where two headings read alike, the source gives them in different places. Where a SMILES comes first, the peptide text is derived from it.

What was measured:
[1] = target: T1, α7 nAChRs (Rattus norvegicus, UniProt Q05941); type: cell-based
[2] = target: T1, α7 nAChRs; details: native and expressed receptors, cited from earlier work
[3] = target: α4β2 nAChRs (Rattus norvegicus, UniProt P09483+P12390); type: cell-based
α4β2 nAChRs, sequence (P09483 31-630): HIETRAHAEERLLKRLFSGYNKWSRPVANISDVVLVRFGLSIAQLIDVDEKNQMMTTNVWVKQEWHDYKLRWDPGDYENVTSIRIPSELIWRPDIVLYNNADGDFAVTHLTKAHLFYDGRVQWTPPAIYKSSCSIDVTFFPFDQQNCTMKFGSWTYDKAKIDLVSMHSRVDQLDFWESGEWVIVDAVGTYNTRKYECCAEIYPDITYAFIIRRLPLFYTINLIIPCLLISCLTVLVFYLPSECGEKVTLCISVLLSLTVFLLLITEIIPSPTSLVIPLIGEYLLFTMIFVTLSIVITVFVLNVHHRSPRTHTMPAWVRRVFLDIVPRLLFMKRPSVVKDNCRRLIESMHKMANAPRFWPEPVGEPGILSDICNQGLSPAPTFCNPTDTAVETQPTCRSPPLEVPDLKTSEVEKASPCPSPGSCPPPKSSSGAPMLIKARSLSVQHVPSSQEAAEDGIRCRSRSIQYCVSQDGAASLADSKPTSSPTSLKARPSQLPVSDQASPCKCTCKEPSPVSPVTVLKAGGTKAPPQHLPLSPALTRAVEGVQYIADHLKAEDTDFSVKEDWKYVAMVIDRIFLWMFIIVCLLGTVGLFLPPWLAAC
α4β2 nAChRs, sequence (P12390 25-500): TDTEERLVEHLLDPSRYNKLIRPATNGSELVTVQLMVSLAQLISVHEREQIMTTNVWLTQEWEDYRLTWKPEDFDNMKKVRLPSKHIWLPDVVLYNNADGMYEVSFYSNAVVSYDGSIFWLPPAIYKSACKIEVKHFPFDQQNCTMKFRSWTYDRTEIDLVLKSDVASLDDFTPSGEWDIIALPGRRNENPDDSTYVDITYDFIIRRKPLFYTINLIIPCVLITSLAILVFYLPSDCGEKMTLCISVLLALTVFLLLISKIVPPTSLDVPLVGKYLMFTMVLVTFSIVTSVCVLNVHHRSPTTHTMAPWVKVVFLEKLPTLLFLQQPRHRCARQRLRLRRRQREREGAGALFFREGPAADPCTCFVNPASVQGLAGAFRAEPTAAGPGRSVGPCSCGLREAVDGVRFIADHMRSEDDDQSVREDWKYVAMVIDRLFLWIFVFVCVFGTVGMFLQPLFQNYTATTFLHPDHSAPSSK

[4] = target: α2β2 nAChRs (Rattus norvegicus, UniProt P12389+P12390); type: cell-based
α2β2 nAChRs, sequence (P12389 28-511): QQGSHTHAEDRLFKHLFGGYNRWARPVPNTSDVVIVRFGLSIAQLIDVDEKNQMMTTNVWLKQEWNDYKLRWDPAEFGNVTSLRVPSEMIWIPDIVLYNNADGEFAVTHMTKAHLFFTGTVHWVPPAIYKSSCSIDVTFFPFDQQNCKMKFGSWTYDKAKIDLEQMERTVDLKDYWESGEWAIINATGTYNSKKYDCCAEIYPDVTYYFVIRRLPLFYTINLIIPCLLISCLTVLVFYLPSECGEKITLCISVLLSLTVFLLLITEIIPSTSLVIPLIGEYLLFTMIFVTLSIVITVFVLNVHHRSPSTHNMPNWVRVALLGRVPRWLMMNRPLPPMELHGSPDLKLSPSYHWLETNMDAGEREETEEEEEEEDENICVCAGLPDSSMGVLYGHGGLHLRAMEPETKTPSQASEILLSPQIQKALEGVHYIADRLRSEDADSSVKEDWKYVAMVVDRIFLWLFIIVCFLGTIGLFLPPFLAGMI
α2β2 nAChRs, sequence (P12390 25-500): as the sequence (P12390 25-500) above

[5] = target: native α7-containing nAChRs (rat CA1 stratum radiatum interneurons) (Rattus norvegicus, UniProt Q05941); type: cell-based
native α7-containing nAChRs (rat CA1 stratum radiatum interneurons), sequence (Q05941 23-502): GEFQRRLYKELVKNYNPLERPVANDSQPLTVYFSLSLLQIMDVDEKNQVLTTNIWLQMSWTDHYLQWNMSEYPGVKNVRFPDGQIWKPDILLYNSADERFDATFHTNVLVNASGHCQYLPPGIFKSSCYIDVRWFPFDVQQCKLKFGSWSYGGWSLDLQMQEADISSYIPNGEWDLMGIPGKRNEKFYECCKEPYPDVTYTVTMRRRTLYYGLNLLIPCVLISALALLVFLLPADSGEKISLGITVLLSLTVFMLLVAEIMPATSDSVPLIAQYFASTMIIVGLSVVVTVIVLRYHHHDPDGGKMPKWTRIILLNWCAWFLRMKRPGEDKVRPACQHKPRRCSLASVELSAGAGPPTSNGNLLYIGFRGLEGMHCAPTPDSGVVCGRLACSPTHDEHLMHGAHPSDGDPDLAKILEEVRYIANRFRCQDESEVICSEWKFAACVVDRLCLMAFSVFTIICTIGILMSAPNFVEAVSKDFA

[6] = target: homomeric α7 nicotinic acetylcholine receptor expressed in X. laevis oocytes (UniProt Q05941)
homomeric α7 nicotinic acetylcholine receptor expressed in X. laevis oocytes, sequence (Q05941 23-502): as above

[7] = heteromeric nAChRs, X. laevis oocytes

T1 sequence (Q05941 23-502): as above

## MARCKS154–165: truncated form of the MARCKS ED peptide, purchased from AnaSpec (KKKRFSFKKSFK; UniProt P29966 154-165, looked up, fragment)
[1]; X. laevis oocytes
  inhibition of ACh-evoked α7 nAChR responses (in words): unable to significantly inhibit α7 nAChRs

## MARCKS159–165: truncated form of the MARCKS ED peptide, purchased from AnaSpec (SFKKSFK; UniProt P29966 159-165, looked up, fragment)
[1]; X. laevis oocytes
  inhibition of ACh-evoked α7 nAChR responses (in words): unable to significantly inhibit α7 nAChRs

## β-Amyloid1–42: brain-derived peptide β-amyloid1–42
[2]; ref Dineley et al., 2002, Dougherty et al., 2003
  effect on α7 nAChRs: agonism
[2]; ref Liu et al., 2001, Grassi et al., 2003
  effect on α7 nAChRs: almost complete antagonism
[2]; ref Pettit et al., 2001, Lamb et al., 2005
  effect on α7 nAChRs: minimal to no antagonism

## CC(=O)N[C@@H](CCCCN)C(=O)N[C@@H](CCCCN)C(=O)N[C@@H](CCCCN)C(=O)N[C@@H](CCCCN)C(=O)N[C@@H](CCCCN)C(=O)N[C@@H](CCCNC(=N)N)C(=O)N[C@@H](Cc1ccccc1)C(=O)N[C@@H](CO)C(=O)N[C@@H](Cc1ccccc1)C(=O)N[C@@H](CCCCN)C(=O)N[C@@H](CCCCN)C(=O)N[C@@H](CO)C(=O)N[C@@H](Cc1ccccc1)C(=O)N[C@@H](CCCCN)C(=O)N[C@@H](CC(C)C)C(=O)N[C@@H](CO)C(=O)NCC(=O)N[C@@H](Cc1ccccc1)C(=O)N[C@@H](CO)C(=O)N[C@@H](Cc1ccccc1)C(=O)N[C@@H](CCCCN)C(=O)N[C@@H](CCCCN)C(=O)N[C@@H](CC(N)=O)C(=O)N[C@@H](CCCCN)C(=O)N[C@@H](CCCCN)C(N)=O [MARCKS ED peptide] (Ac-KKKKKRFSFKKSFKLSGFSFKKNKK-NH2)
[1]; 1 µM peptide, +30 vs -60 mV
  inhibition not because of open channel block: 86%
  voltage-dependent part of the inhibition: 14%
[1]; 1 µM, X. laevis oocytes
  onset of inhibition: rapid
[1]; +30 and -60 mV
  voltage dependence of inhibition: activity- and voltage-independent; also recorded: voltage- and activity-independent
[1]; X. laevis oocytes
  inhibition of ACh-evoked α7 nAChR responses (in words): completely inhibited
  washout / recovery from inhibition: slow and slow recovery during washout and slow to recover with washout
[1]; peptide bath applied 10 min without ACh stimulation, then ACh
  activity (use) dependence of inhibition: activity- and voltage-independent; also recorded: there was not a use-dependent component of the peptide block; also recorded: voltage- and activity-independent
[1]; read-out: activity-independent inhibition of α7 nAChRs
  inhibition at 1 µM: 98 ± 2%
[1]; read-out: inhibition of ACh-induced α7 nAChR peak current responses
  inhibition at 1 µM: 99 ± 0.2%
[1]; read-out: inhibition of α7 ACh responses at 100 nM
  inhibition at 0.1 µM: 90 ± 2%
[1]; read-out: inhibition still present after washout
  inhibition at 1 µM: 82 ± 3%
[3]; IC50 comparison by F test
  potency at α4β2 compared with α7 nAChRs: decreased potency; also recorded: less potent inhibition
[3]; [7]
  dissociation from α4β2 nAChRs relative to α7: appears to dissociate more rapidly from heteromeric nAChRs
[4]; IC50 comparison by F test
  potency at α2β2 compared with α7 nAChRs: decreased potency; also recorded: less potent inhibition
[4]; [7]
  dissociation from α2β2 nAChRs relative to α7: appears to dissociate more rapidly from heteromeric nAChRs
[5]; acute rat hippocampal slices
  block of native α7 nAChRs in hippocampal interneurons (in words): able to block native α7 nAChRs in a dose-dependent manner
[5]; bath application
  effect on baseline current in hippocampal interneurons: no effect
  onset of inhibition, hippocampal slices: slow
[5]; read-out: inhibition of ACh-evoked responses in hippocampal interneurons, 1 µM
  inhibition at 1 µM: 59 ± 13%
[5]; read-out: inhibition of ACh-evoked responses in hippocampal interneurons, 3 µM
  inhibition at 3 µM: 92 ± 2%
[5]; read-out: inhibition of ACh-evoked responses in hippocampal interneurons, 10 µM
  inhibition at 10 µM: 100%
[5]; within 20 min of washout, two to three interneurons
  recovery of responses after washout, hippocampal slices: do not recover after MARCKS ED peptide inhibition

## MARCKS_(154–165) peptide
[6]
  percentage block of ACh-evoked α7 nAChR current in oocytes, peptide 1 µM: 12%

## MARCKS_(159–165) peptide
[6]
  percentage block of ACh-evoked α7 nAChR current in oocytes, peptide 1 µM: 5%

## KKKKKRFDFKKDFKLDGFDFKKNK [MARCKS S/D]
[1]; X. laevis oocytes
  inhibition of ACh-evoked α7 nAChR responses (in words): unable to inhibit ACh-mediated α7 nAChR responses; also recorded: lack of inhibition of nAChR responses
